# Source: patent publication US8637510B2, “Morpholinothiazoles as alpha 7 positive allosteric modulators” (Janssen Pharmaceutica NV, priority 2009, dated 2014)
# Molecular target: T1, human alpha 7-wt nAChR (Homo sapiens, UniProt P36544)
# T1 construct: expressed in transfected cells
# Experiment: Ca2+ flux imaging (FDSS) (Protocol B)
# Format: cell-based
# Conditions: for Emax: efficacy of 100 μM choline defined as 100% in the absence of a PAM, read-out: a7-PAM-G_[33]_Eff_Curve_FI % Efficacy; for EC50: potentiation of 100 μM choline, compounds 0.01 μM to 30 μM, read-out: a7-PAM-G_[33]_pEC50 pEC50 (converted)
# Description: Ca^2+ Flux Imaging (FDSS) (Protocol B)
# • Hanks buffered saline solution (HBSS, Invitrogen, Belgium), supplemented with 10 mM HEPES (Invitrogen, Belgium), CaCl2 to a final concentration of 5 mM, 0.1% Bovine serum albumin (Sigma-Aldrich NV, Belgium). b) Calcium-Sensitive Dye—Fluo-4AM • Fluo-4AM (Molecular Probes, USA) was dissolved in DMSO containing 10% Pluronic acid (Molecular Probes, USA) to give a stock solution which was diluted in assay buffer supplemented with 5 mM probenicid (Sigma, Aldrich NV, Belgium) to give a final concentration of 2 μM. c) 384-Well Plates • Black-sided, transparent bottomed 384 well plates coated with poly-D-lysine, PDL pre-coated (Corning, Incorporated, USA) d) Calcium Flux Measurement • A Functional drug screening system (FDSS, Hamamatsu) was used to measure intracellular free-calcium flux signals. Method
# Monolayers of human alpha 7-wt nAChR-expressing cells were grown in black-sided, transparent bottomed 384 well plates coated with PDL for 24 hours prior to loading with a fluorescent calcium indicator, fluo-4AM for up to 120 minutes.
# PAM activity was detected in real time by applying the compounds to be tested to the loaded cells along with an alpha 7 nicotinic receptor agonist during constant monitoring of cellular fluorescence in a FDSS. Compounds giving peak fluorescent responses greater than the response due to agonist alone, were considered to be alpha 7 nAChR PAMs. The alpha 7 nicotinic receptor agonist was choline, applied at a sub-maximal concentration of 100 μM. In a further setting of the present invention the compounds were applied prior to the alpha 7 nicotinic receptor agonist, in a particular 10 minutes prior to the agonist.
# A control response to choline was calculated on each plate from the difference in peak in fluorescence in wells receiving either choline or assay buffer alone. Compounds of the present invention were tested at a concentration range from 0.01 μM to 30 μM. Compounds were considered to have an interesting activity when they potentiated the choline signal at least with 200% when tested at a concentration of 30 μM (the efficacy of 100 μM choline was defined as 100% in the absence of a PAM). An EC50 (or pEC50) was determined as a concentration relating to half the maximal effect, when a clear sigmoidal curve with top plateau was obtained.
# T1 sequence (P36544 23-502): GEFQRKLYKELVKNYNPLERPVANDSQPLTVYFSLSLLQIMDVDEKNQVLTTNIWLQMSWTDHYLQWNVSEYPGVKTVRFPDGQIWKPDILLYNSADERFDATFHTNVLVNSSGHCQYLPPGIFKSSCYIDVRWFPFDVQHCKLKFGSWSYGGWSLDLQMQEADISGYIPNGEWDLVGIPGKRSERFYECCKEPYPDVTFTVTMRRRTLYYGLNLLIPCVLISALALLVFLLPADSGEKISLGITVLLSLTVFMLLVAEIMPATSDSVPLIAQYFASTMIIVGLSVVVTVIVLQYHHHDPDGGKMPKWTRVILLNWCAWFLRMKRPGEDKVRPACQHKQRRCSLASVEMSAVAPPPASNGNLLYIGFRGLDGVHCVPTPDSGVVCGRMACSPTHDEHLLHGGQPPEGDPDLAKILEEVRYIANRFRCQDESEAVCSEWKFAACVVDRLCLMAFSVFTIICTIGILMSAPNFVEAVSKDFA
Structure (SMILES),Emax [%],EC50 [nM]
"CC(C)C(=O)NCc1nc(N2CCOCC2)sc1-c1ccncc1 [Compound 115, 2-methyl-N-[[2-(4-morpholinyl)-5-(4-pyridinyl)-4-thiazolyl]methyl]-propanamide]",230,9330
"Cc1ccc(-c2sc(N3C[C@@H](C)O[C@@H](C)C3)nc2CNC(=O)c2ccccc2F)cn1 [Compound 124, N-[[2-[(2R,6S)-2,6-dimethyl-4-morpholinyl]-5-(6-methyl-3-pyridinyl)-4-thiazolyl]methyl]-2-fluoro-benzamide]",356,
"Cc1cc(-c2sc(N3C[C@@H](C)O[C@@H](C)C3)nc2CNC(=O)c2cc(C3CC3)on2)cc(C)n1 [Compound 127, 5-cyclopropyl-N-[[2-[(2R,6S)-2,6-dimethyl-4-morpholinyl]-5-(2,6-dimethyl-4-pyridinyl)-4-thiazolyl]methyl]-3-isoxazolecarboxamide]",,692
"Cc1cc(-c2sc(N3C[C@@H](C)O[C@@H](C)C3)nc2CNC(=O)CCC(F)(F)F)cc(C)n1 [Compound 128, N-[[2-[(2R,6S)-2,6-dimethyl-4-morpholinyl]-5-(2,6-dimethyl-4-pyridinyl)-4-thiazolyl]methyl]-4,4,4-trifluoro-butanamide]",,51.3
"Cc1cc(-c2sc(N3C[C@@H](C)O[C@@H](C)C3)nc2CNC(=O)c2cc(C)nn2C(C)(C)C)cc(C)n1 [Compound 129, 1-(1,1-dimethylethyl)-N-[[2-[(2R,6S)-2,6-dimethyl-4-morpholinyl]-5-(2,6-dimethyl-4-pyridinyl)-4-thiazolyl]methyl]-3-methyl-1H-pyrazole-5-carboxamide]",,912
"Cc1cc(-c2sc(N3C[C@@H](C)O[C@@H](C)C3)nc2CNC(=O)c2noc3ccccc23)cc(C)n1 [Compound 130, N-[[2-[(2R,6S)-2,6-dimethyl-4-morpholinyl]-5-(2,6-dimethyl-4-pyridinyl)-4-thiazolyl]methyl]-1,2-benzisoxazole-3-carboxamide]",,309
"Cc1cc(-c2sc(N3C[C@@H](C)O[C@@H](C)C3)nc2CNC(=O)c2cc(C)n(C)n2)cc(C)n1 [Compound 131, N-[[2-[(2R,6S)-2,6-dimethyl-4-morpholinyl]-5-(2,6-dimethyl-4-pyridinyl)-4-thiazolyl]methyl]-1,5-dimethyl-1H-pyrazole-3-carboxamide]",462,
"Cc1cc(-c2sc(N3C[C@@H](C)O[C@@H](C)C3)nc2CNC(=O)c2cc(C(C)C)on2)cc(C)n1 [Compound 135, N-[[2-[(2R,6S)-2,6-dimethyl-4-morpholinyl]-5-(2,6-dimethyl-4-pyridinyl)-4-thiazolyl]methyl]-5-(1-methylethyl)-3-isoxazolecarboxamide]",,537
"Cc1cc(-c2sc(N3C[C@@H](C)O[C@@H](C)C3)nc2CNC(=O)c2cc(C)nn2C)cc(C)n1 [Compound 136, N-[[2-[(2R,6S)-2,6-dimethyl-4-morpholinyl]-5-(2,6-dimethyl-4-pyridinyl)-4-thiazolyl]methyl]-1,3-dimethyl-1H-pyrazole-5-carboxamide]",,1950
"Cc1cc(-c2sc(N3C[C@@H](C)O[C@@H](C)C3)nc2CNC(=O)c2cnccn2)cc(C)n1 [Compound 138, N-[[2-[(2R,6S)-2,6-dimethyl-4-morpholinyl]-5-(2,6-dimethyl-4-pyridinyl)-4-thiazolyl]methyl]-2-pyrazinecarboxamide]",837,4680
"Cc1cc(-c2sc(N3C[C@@H](C)O[C@@H](C)C3)nc2CNC(=O)c2cc(C)n(C(C)(C)C)n2)cc(C)n1 [Compound 139, 1-(1,1-dimethylethyl)-N-[[2-[(2R,6S)-2,6-dimethyl-4-morpholinyl]-5-(2,6-dimethyl-4-pyridinyl)-4-thiazolyl]methyl]-5-methyl-1H-pyrazole-3-carboxamide]",699,617
"COc1cccc(C(=O)NCc2nc(N3C[C@@H](C)O[C@@H](C)C3)sc2-c2cc(C)nc(C)c2)n1 [Compound 140, N-[[2-[(2R,6S)-2,6-dimethyl-4-morpholinyl]-5-(2,6-dimethyl-4-pyridinyl)-4-thiazolyl]methyl]-6-methoxy-2-pyridinecarboxamide]",451,1200
"Cc1cc(-c2sc(N3C[C@@H](C)O[C@@H](C)C3)nc2CNC(=O)c2ccoc2)cc(C)n1 [Compound 141, N-[[2-[(2R,6S)-2,6-dimethyl-4-morpholinyl]-5-(2,6-dimethyl-4-pyridinyl)-4-thiazolyl]methyl]-3-furancarboxamide]",764,692
"Cc1cc(-c2sc(N3C[C@@H](C)O[C@@H](C)C3)nc2CNC(=O)c2ccn(C)n2)cc(C)n1 [Compound 142, N-[[2-[(2R,6S)-2,6-dimethyl-4-morpholinyl]-5-(2,6-dimethyl-4-pyridinyl)-4-thiazolyl]methyl]-1-methyl-1H-pyrazole-3-carboxamide]",669,
"Cc1cc(-c2sc(N3C[C@@H](C)O[C@@H](C)C3)nc2CNC(=O)c2cc(C(C)(C)C)on2)cc(C)n1 [Compound 143, 5-(1,1-dimethylethyl)-N-[[2-[(2R,6S)-2,6-dimethyl-4-morpholinyl]-5-(2,6-dimethyl-4-pyridinyl)-4-thiazolyl]methyl]-3-isoxazolecarboxamide]",,891
"Cc1cc(-c2sc(N3C[C@@H](C)O[C@@H](C)C3)nc2CNC(=O)CCCC(F)(F)F)cc(C)n1 [Compound 145, N-[[2-[(2R,6S)-2,6-dimethyl-4-morpholinyl]-5-(2,6-dimethyl-4-pyridinyl)-4-thiazolyl]methyl]-5,5,5-trifluoro-pentanamide]",,148
"Cc1cc(-c2sc(N3C[C@@H](C)O[C@@H](C)C3)nc2CNC(=O)c2ccoc2C)cc(C)n1 [Compound 151, N-[[2-[(2R,6S)-2,6-dimethyl-4-morpholinyl]-5-(2,6-dimethyl-4-pyridinyl)-4-thiazolyl]methyl]-2-methyl-3-furancarboxamide]",,871
"Cc1cc(-c2sc(N3C[C@@H](C)O[C@@H](C)C3)nc2CNC(=O)c2ocnc2C)cc(C)n1 [Compound 152, N-[[2-[(2R,6S)-2,6-dimethyl-4-morpholinyl]-5-(2,6-dimethyl-4-pyridinyl)-4-thiazolyl]methyl]-4-methyl-5-oxazolecarboxamide]",,6920
"Cc1cc(-c2sc(N3C[C@@H](C)O[C@@H](C)C3)nc2CNC(=O)c2scnc2C)cc(C)n1 [Compound 153, N-[[2-[(2R,6S)-2,6-dimethyl-4-morpholinyl]-5-(2,6-dimethyl-4-pyridinyl)-4-thiazolyl]methyl]-4-methyl-5-thiazolecarboxamide]",,2750
"Cc1cc(-c2sc(N3C[C@@H](C)O[C@@H](C)C3)nc2CNC(=O)c2snnc2C)cc(C)n1 [Compound 155, N-[[2-[(2R,6S)-2,6-dimethyl-4-morpholinyl]-5-(2,6-dimethyl-4-pyridinyl)-4-thiazolyl]methyl]-4-methyl-1,2,3-thiadiazole-5-carboxamide]",,75.9
"COc1nc(C)c(C(=O)NCc2nc(N3C[C@@H](C)O[C@@H](C)C3)sc2-c2cc(C)nc(C)c2)s1 [Compound 158, N-[[2-[(2R,6S)-2,6-dimethyl-4-morpholinyl]-5-(2,6-dimethyl-4-pyridinyl)-4-thiazolyl]methyl]-2-methoxy-4-methyl-5-thiazolecarboxamide]",951,1580
"Cc1cc(-c2sc(N3C[C@@H](C)O[C@@H](C)C3)nc2CNC(=O)c2cc(C)sc2C)cc(C)n1 [Compound 162, N-[[2-[(2R,6S)-2,6-dimethyl-4-morpholinyl]-5-(2,6-dimethyl-4-pyridinyl)-4-thiazolyl]methyl]-2,5-dimethyl-3-thiophenecarboxamide]",842,813
"Cc1cc(-c2sc(N3C[C@@H](C)O[C@@H](C)C3)nc2CNC(=O)c2ccc(C(F)(F)F)nc2C)cc(C)n1 [Compound 165, N-[[2-[(2R,6S)-2,6-dimethyl-4-morpholinyl]-5-(2,6-dimethyl-4-pyridinyl)-4-thiazolyl]methyl]-2-methyl-6-(trifluoromethyl)-3-pyridinecarboxamide]",,49
"Cc1cc(CC(=O)NCc2nc(N3C[C@@H](C)O[C@@H](C)C3)sc2-c2cc(C)nc(C)c2)on1 [Compound 167, N-[[2-[(2R,6S)-2,6-dimethyl-4-morpholinyl]-5-(2,6-dimethyl-4-pyridinyl)-4-thiazolyl]methyl]-3-methyl-5-isoxazoleacetamide]",,1230
"Cc1cc(-c2sc(N3C[C@@H](C)O[C@@H](C)C3)nc2CNC(=O)c2cn(C)nc2C)cc(C)n1 [Compound 169, N-[[2-[(2R,6S)-2,6-dimethyl-4-morpholinyl]-5-(2,6-dimethyl-4-pyridinyl)-4-thiazolyl]methyl]-1,3-dimethyl-1H-pyrazole-4-carboxamide]",671,
